Experimental data as given in article PMC8893300, “A Dynamic Mass Redistribution Assay for the Human Sweet Taste Receptor Uncovers G-Protein Dependent Biased Ligands” (Frontiers in Pharmacology, 2022).
Like-named read-outs stand apart in the source and are kept apart here. Marks after values point to notes of the source that are not given here. Residues, ends and D or L forms follow the SMILES beside them.

How the values were obtained:
[1] = biological target: T1, human sweet taste receptor (hT1R2/hT1R3) (Homo sapiens, UniProt Q7RTX0+Q8TE23); assay: DMR assay (Epic reader) on R2/R3 U2OS cells, endogenous G proteins; assay type: cell-based; conditions: for EC50: R2/R3 U2OS cells, peak DMR response; for ΔlogR DMR Mean: Table 2, operational model, logR minus sucralose logR; for Activity in DMR assay Emax: top asymptote of dose-response normalized to 1 mM sucralose
T1 construct: expressed in transfected cells
T1 sequence (Q8TE23 20-839): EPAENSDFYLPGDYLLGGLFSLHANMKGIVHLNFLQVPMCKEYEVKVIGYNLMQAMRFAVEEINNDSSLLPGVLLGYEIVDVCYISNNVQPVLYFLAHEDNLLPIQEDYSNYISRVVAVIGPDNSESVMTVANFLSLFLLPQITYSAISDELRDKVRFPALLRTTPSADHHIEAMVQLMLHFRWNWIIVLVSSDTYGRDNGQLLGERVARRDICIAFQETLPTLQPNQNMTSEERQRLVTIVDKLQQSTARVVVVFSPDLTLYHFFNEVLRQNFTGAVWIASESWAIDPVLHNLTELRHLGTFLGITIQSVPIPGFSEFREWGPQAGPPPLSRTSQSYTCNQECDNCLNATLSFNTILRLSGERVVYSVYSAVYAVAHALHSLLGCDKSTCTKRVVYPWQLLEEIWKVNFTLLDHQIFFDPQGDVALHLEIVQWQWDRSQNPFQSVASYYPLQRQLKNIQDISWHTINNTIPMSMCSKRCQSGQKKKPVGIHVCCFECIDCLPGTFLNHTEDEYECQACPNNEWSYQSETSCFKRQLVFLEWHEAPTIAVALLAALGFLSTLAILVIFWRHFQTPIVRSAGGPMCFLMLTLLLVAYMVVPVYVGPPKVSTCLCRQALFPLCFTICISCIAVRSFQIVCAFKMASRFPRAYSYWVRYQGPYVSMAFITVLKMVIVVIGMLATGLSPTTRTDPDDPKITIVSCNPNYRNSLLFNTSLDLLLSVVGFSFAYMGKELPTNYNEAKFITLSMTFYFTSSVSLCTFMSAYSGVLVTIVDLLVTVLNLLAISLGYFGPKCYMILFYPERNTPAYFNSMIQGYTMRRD
T1 sequence (Q7RTX0 21-852): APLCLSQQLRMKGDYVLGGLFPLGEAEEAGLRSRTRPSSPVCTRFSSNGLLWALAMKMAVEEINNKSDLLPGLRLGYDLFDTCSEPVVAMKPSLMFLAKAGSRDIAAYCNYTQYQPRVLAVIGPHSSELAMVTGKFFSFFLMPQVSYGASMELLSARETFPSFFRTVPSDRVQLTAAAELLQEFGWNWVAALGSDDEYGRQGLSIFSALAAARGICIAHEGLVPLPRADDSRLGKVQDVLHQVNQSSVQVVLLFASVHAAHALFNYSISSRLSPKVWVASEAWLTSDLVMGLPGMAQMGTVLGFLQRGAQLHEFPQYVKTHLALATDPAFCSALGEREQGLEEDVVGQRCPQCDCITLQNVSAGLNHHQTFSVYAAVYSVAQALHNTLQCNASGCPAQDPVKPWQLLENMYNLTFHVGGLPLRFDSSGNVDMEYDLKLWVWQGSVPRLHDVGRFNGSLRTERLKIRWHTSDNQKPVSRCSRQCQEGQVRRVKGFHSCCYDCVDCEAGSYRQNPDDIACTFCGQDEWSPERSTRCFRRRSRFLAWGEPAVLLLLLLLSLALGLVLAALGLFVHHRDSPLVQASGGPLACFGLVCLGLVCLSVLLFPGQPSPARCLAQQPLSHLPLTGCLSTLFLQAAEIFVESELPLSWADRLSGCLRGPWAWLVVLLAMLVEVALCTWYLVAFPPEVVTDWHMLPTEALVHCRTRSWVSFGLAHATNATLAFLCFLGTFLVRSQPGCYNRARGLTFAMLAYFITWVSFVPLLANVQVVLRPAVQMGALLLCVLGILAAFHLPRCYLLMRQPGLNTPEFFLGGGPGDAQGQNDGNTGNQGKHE
Experimental: The plates were incubated in the tissue culture hood for 20 min to allow cells to settle evenly at the bottom of the microplate and further cultured at 37°C in an atmosphere of 5% CO2 for 18–24 h. The next day, the cells were subjected to functional analysis using DMR. […] When indicated, data for agonist dose-responses were normalized to data obtained with a maximum concentration of sucralose (1 mM) and then fitted and plotted using GraphPad Prism (San Diego, CA) and non-linear regression analysis.
(§1) This value, that we termed pEC50Ratio (sucralose) or pEC50R (sucralose), was calculated with EC50 values obtained in the two assay systems. This transformation also allowed determination of an average and a standard error for the pEC50R (sucralose). The two sets of data (DMR and FLIPR data) were then analyzed with an un-paired t-test (α = 0.05). To calculate relative efficacy bias between the two assays, we captured the top asymptote value from each activity-normalized dose-response curve, as provided by the curve fit, calculated an average and a standard deviation (sd) for each agonist and then analyzed the data pairs with an un-paired t-test (α = 0.05). […] The following steps were followed: 1) Using the PRISM software, we re-analyzed each ligand’s dose-response data obtained in each assay with non-linear regression and the users-defined equation “New Operational Model with TauKa ratios” and retrieved logR values from the fits. 2) Subtracted each ligand’s logR value with that of our standard, the sucralose logR value, obtained from the same data set (each ligand dose-response assay data used in this analysis was accompanied with a sucralose dose-response ran on the same day), producing the ΔlogR value for leach ligand in each assay. 3) Calculated the mean and SEM from ΔlogR replicates (from three to nine independent dose-response analysis, in the two different assays). 4) Calculated ΔΔlogR values by subtracting the averaged ligands’ ΔlogR FLIPR values with the averaged ligands’ ΔlogR DMR values.

[2] = biological target: T2, human sweet taste receptor (hT1R2/hT1R3) coupled to Gα15 (Homo sapiens, UniProt Q7RTX0+Q8TE23); assay: FLIPR calcium mobilization assay, R2/R3 U2OS cells transduced with Gα15 baculovirus; assay type: cell-based; conditions: for ΔlogR FLIPR Mean: FLIPR-Gα15, operational model, logR minus sucralose logR; for Activity in FLIPR assay Emax: top asymptote of dose-response normalized to 1 mM sucralose; for Bias factor: inverse log of ΔΔlogR, FLIPR-Gα15 vs DMR; for ΔΔlogR Mean: ΔlogR FLIPR-Gα15 minus ΔlogR DMR
T2 construct: expressed in transfected cells
T2 sequence (Q8TE23 20-839): T1 sequence (Q8TE23 20-839)
T2 sequence (Q7RTX0 21-852): T1 sequence (Q7RTX0 21-852)
Experimental: The Gα15 coding sequence was inserted in the HindIII-NotI sites and recombinant virus was generated using the Bac-to-Bac system (Life Technologies). Virus was further amplified by propagation in Sf9 cells grown in suspension using Sf900-II media. Virus titers were determined by plaque assay on Sf9 cells.
Cells were gently mixed with the virus at a multiplicity of infection (MOI) of 5. Using a multidrop, 70 μl per well of the cell and virus mixture was dispensed in a 384-well clear bottom plate (Fisher). After 24 h of incubation in a humidified 37°C tissue culture incubator, trichostatin A was added to a final concentration of 0.3 μM and the cells were incubated for another 18–24 h at 34°C. On the day of the experiment, cells were loaded with 4 μM of the calcium indicator Fluo-4 AM (Invitrogen) in D-PBS for 1 h at room temperature. After washing the cells with D-PBS using a cell washer (BioTek) and a 30-minute rest time, the cell plate and the compound plate were transferred into the FLIPR-Tetra (Molecular Devices). […] Loading and the FLIPR assay were run as described above. When indicated, data for agonist dose-responses were normalized to data obtained with a maximum concentration of sucralose (1 mM) and then fitted and plotted using GraphPad Prism (San Diego, CA) and non-linear regression analysis.
as §1

[3] = read-out: Activity in DMR assay EC50
[4] = read-out: Activity in DMR assay pEC50 (converted)
[5] = Activity in FLIPR assay EC50, R2/R3 U2OS cells expressing Gα15
[6] = Activity in FLIPR assay pEC50, R2/R3 U2OS cells expressing Gα15
[7] = R2/R3 U2OS cells expressing Gα15, read-out: Activity in FLIPR assay EC50
[8] = R2/R3 U2OS cells expressing Gα15, read-out: Activity in FLIPR assay pEC50 (converted)

Row | Compound | EC50 [1, 3] [µM] | EC50 [1, 4] [µM] | ΔlogR DMR Mean [1] | Activity in DMR assay Emax [1] | EC50 [2, 5] [µM] | EC50 [2, 6] [µM] | ΔlogR FLIPR Mean [2] | Activity in FLIPR assay Emax ([2]; Gα15) | Bias factor [2] | ΔΔlogR Mean [2] | EC50 [2, 7] [µM] | EC50 [2, 8] [µM] | response in the FLIPR assay, in words ([2]; R2/R3 U2OS cells transduced with Gα15) | leftward shift in the sucralose dose-response in the DMR assay ([1]; 25 μM SE-2, mean ± sd, n = 3) [fold] | agonist activity on its own in the DMR assay, in words ([1]; 25 μM SE-2 at lower sucralose concentrations) | enhancement factor of the sucralose dose-response in the FLIPR assay ([2]; 25 μM SE-2, Gα15, mean ± sd, n = 4) [fold]
1 | C[C@@H](NC(=O)[C@@H](N)CC(=O)O)C(=O)NC1C(C)(C)SC1(C)C [Alitame] | 37 | 32.5 | 0.35 | 106 | 20 | 19.4 | 0.52 | 100 | 1.5 | 0.18 | – | – | – | – | – | –
2 | COC(=O)[C@H](Cc1ccccc1)NC(=O)[C@@H](N)CC(=O)O [Aspartame] (H-Asp-Phe-OMe) | 910 | 771 | −0.72 | 143 | – | – | −0.74 | 106 | – | −0.03 | 354 | 352 | – | – | – | –
3 | O=C(CO)[C@@H](O)[C@H](O)[C@H](O)CO [D-fructose] | – | – | – | – | – | – | – | – | – | – | – | – | readily detected | – | – | –
4 | CCOc1ccc(NC(N)=O)cc1 [Dulcin] | 33 | 30.7 | 0.20 | 57**** | – | – | 0.38 | 87**** | – | 0.18 | – | 23.1 | – | – | – | –
5 | CCCOc1ccc([N+](=O)[O-])cc1N [P-4000] | – | 3.78 | 1.31 | 102 | – | – | 1.67 | 164**** | – | 0.36 | 2.2 | 2.12 | – | – | – | –
6 | Cc1cc(C)c2c(c1)[C@H](NC(=O)c1conc1C)CCC2 [S679] | 1.3 | 1.22 | 2.07 | 133 | – | – | 2.15 | 159**** | – | 0.08 | 0.7 | 0.716 | – | – | – | –
7 | COCc1cncc(-c2ccc(C(C)(C)C(=O)NCC(C)C)cc2)n1 [S1313] | – | 1.51 | 1.91 | 130 | – | – | 2.14 | 170**** | – | 0.22 | 0.7 | 0.665 | – | – | – | –
8 | C[C@H](NC(=Nc1ccc(C#N)cc1)NCC(=O)O)c1ccccc1 [SC-45647] | 4.3 | 4.09 | 1.38 | 97** | – | – | 1.45 | 98** | – | 0.07 | – | 2.28 | – | – | – | –
9 | Cc1sc2[nH]c(=O)nc(N)c2c1C [SE-2] | – | – | – | – | – | – | – | – | – | – | – | – | – | 5.1 ± 1.5 | did not produce any agonist activity on its own | 7.3 ± 0.9
10 | O=C1NS(=O)(=O)c2ccccc21 [Saccharin] | – | – | −0.31 | 145 | – | – | −0.47 | 90**** | – | −0.16 | – | – | – | – | – | –
11 | C=C1C[C@@]23CC[C@H]4[C@@](C)(CCC[C@@]4(C)C(=O)O[C@@H]4O[C@H](CO)[C@@H](O)[C@H](O)[C@H]4O)[C@@H]2CC[C@]1(O[C@@H]1O[C@H](CO)[C@@H](O)[C@H](O)[C@H]1O[C@@H]1O[C@H](CO)[C@@H](O)[C@H](O)[C@H]1O)C3 [Stevioside] | 127 | 114 | 0.09 | 141 | 51 | 50.1 | 0.13 | 102 | – | 0.04 | – | – | – | – | – | –
12 | COC(=O)[C@H](Cc1ccccc1)NC(=O)[C@H](CC(=O)O)NC(=O)Nc1ccc(C#N)cc1 [Superaspartame] | 9.8 | 9.48 | 1.04 | 109 | – | – | 1.17 | 105 | – | 0.13 | 4.7 | 4.62 | – | – | – | –
13 | CC1=CC(=O)NS(=O)(=O)O1 [acesulfame K] | 1220 | 906 | −0.99 | 122 | – | – | −0.74 | 73**** | 1.8 | – | 253 | 251 | – | – | – | –
